Measurements reported in the kinase profiling compilation of Christmann-Franck et al. (2016).
Values belong to the molecule of their own block, whether it stands above or below them.

Legend:
Test in all cases: KINOMEscan competition binding
Conditions in all cases: compound 10.0 µM
[1] = biological target: AURKB (human) (UniProt Q96GD4)
[2] = biological target: BMP2K (human) (UniProt Q9NSY1)
[3] = biological target: BRSK2 (human) (UniProt Q8IWQ3)
[4] = biological target: CIT (human) (UniProt O14578)
[5] = biological target: CLK1 (human) (UniProt P49759)
[6] = biological target: CLK4 (human) (UniProt Q9HAZ1)
[7] = biological target: CSNK2A2 (human) (UniProt P19784)
[8] = biological target: DAPK3 (human) (UniProt O43293)
[9] = biological target: DYRK1B (human) (UniProt Q9Y463)
[10] = tested on: EGFR (human), P00533 [747-751 del / S ins]
[11] = tested on: FLT3 (human), P36888 [D835Y]
[12] = tested on: FLT3 (human), P36888 [ITD]
[13] = biological target: GAK (human) (UniProt O14976)
[14] = tested on: KIT (human), P10721 [D816V]
[15] = tested on: KIT (human), P10721 [V559D/T670I]
[16] = tested on: KIT (human), P10721 [V559D/V654A]
[17] = biological target: MAP2K3 (human) (UniProt P46734)
Chain of MAP2K3 (human) (P46734 whole entry, looked up): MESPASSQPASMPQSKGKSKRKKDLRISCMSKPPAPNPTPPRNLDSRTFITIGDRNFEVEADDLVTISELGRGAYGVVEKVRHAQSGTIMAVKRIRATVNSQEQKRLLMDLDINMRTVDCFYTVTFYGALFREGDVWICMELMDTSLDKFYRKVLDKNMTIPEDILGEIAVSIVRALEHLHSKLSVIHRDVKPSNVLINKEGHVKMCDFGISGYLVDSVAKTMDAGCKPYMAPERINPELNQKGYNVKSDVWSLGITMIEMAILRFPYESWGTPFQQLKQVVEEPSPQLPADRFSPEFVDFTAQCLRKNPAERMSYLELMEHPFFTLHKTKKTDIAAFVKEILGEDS

[18] = biological target: MAP3K7 (human) (UniProt O43318)
[19] = biological target: MAP4K2 (human) (UniProt Q12851)
Chain of MAP4K2 (human) (Q12851 whole entry, looked up): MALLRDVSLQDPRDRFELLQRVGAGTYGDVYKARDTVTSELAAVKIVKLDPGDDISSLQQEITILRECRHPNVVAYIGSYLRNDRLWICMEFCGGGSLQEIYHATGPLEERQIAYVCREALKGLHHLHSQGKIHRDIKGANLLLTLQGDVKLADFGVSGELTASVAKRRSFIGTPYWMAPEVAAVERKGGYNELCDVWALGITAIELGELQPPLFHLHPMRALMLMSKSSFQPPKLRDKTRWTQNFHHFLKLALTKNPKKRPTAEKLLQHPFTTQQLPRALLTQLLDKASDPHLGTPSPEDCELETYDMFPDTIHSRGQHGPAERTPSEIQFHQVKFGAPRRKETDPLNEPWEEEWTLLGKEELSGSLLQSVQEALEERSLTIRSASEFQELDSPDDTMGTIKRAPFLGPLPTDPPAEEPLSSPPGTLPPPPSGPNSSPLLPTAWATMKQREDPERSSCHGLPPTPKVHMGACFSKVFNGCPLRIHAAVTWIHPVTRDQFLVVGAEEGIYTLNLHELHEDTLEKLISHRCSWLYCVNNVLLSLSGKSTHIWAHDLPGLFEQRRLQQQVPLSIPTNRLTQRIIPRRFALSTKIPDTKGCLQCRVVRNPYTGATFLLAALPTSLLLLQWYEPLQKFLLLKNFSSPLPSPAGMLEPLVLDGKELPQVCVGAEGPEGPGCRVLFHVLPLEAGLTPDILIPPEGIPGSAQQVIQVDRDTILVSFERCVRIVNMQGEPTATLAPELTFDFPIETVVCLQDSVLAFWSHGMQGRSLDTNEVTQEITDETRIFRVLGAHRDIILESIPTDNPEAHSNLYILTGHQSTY

[20] = biological target: MAPK8 (human) (UniProt P45983)
[21] = biological target: MELK (human) (UniProt Q14680)
[22] = biological target: MKNK2 (human) (UniProt Q9HBH9)
[23] = biological target: PIK3CG (human) (UniProt P48736)
[24] = biological target: PIM2 (human) (UniProt Q9P1W9)
[25] = biological target: PIM3 (human) (UniProt Q86V86)
[26] = biological target: PIP5K1A (human) (UniProt Q99755)
[27] = biological target: PLK4 (human) (UniProt O00444)
Chain of PLK4 (human) (O00444 whole entry, looked up): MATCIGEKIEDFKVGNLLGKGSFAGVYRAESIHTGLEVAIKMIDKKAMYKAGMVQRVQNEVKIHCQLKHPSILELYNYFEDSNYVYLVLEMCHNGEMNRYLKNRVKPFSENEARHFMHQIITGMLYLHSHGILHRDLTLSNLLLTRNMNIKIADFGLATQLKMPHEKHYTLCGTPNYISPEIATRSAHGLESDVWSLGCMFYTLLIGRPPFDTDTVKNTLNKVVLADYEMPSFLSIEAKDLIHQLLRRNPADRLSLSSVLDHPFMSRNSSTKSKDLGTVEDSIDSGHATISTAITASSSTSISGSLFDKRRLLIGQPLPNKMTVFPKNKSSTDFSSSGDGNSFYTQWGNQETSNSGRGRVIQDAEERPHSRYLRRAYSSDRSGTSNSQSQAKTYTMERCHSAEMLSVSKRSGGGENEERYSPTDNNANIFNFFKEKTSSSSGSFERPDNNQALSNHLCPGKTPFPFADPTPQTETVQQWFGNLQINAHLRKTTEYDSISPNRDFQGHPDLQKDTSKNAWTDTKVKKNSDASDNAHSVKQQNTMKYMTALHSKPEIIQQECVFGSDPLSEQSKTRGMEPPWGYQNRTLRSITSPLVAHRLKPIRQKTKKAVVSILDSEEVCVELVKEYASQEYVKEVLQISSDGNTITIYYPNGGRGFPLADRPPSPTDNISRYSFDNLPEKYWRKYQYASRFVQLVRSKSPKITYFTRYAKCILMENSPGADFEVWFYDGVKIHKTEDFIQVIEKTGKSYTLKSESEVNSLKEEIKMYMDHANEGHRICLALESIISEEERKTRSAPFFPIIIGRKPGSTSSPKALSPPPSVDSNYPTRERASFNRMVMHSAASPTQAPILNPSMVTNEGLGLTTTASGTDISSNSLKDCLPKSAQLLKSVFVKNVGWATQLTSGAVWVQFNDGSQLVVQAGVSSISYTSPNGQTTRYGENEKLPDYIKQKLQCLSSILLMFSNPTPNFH

[28] = biological target: PRKD1 (human) (UniProt Q15139)
[29] = biological target: PRKD3 (human) (UniProt O94806)
[30] = biological target: RIPK2 (human) (UniProt O43353)
[31] = biological target: RPS6KA2 KD2 (human) (UniProt Q15349)
[32] = biological target: RPS6KA4 KD2 (human) (UniProt O75676)
[33] = biological target: RPS6KA6 KD2 (human) (UniProt Q9UK32)
[34] = biological target: SRPK2 (human) (UniProt P78362)
[35] = biological target: STK11 (human) (UniProt Q15831)
[36] = biological target: STK17B (human) (UniProt O94768)
[37] = biological target: TAOK1 (human) (UniProt Q7L7X3)
[38] = biological target: TLK1 (human) (UniProt Q9UKI8)
Chain of TLK1 (human) (Q9UKI8 whole entry, looked up): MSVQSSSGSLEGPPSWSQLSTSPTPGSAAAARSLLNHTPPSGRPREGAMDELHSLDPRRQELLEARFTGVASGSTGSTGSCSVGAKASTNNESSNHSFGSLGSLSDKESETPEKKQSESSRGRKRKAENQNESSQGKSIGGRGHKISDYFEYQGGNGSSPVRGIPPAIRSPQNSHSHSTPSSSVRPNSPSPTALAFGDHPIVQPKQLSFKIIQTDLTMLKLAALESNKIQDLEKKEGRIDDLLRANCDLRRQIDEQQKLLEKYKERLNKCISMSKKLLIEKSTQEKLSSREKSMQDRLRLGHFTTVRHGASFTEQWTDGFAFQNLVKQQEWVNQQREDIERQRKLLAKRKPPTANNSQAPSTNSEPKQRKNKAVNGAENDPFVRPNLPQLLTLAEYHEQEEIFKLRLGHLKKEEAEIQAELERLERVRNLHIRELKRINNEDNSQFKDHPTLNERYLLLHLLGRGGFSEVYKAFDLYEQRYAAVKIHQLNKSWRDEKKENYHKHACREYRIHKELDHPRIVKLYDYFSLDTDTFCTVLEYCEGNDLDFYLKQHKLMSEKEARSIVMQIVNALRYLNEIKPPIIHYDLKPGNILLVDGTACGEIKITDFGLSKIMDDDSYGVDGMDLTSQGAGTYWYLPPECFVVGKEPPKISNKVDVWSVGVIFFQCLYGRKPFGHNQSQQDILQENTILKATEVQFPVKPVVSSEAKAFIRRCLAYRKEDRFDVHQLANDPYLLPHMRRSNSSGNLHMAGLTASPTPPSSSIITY

[39] = biological target: TNIK (human) (UniProt Q9UKE5)
[40] = biological target: TTK (human) (UniProt P33981)
[41] = biological target: TYK2 JH2 pseudokinase (human) (UniProt P29597)
[42] = biological target: ULK2 (human) (UniProt Q8IYT8)
Chain of ULK2 (human) (Q8IYT8 whole entry, looked up): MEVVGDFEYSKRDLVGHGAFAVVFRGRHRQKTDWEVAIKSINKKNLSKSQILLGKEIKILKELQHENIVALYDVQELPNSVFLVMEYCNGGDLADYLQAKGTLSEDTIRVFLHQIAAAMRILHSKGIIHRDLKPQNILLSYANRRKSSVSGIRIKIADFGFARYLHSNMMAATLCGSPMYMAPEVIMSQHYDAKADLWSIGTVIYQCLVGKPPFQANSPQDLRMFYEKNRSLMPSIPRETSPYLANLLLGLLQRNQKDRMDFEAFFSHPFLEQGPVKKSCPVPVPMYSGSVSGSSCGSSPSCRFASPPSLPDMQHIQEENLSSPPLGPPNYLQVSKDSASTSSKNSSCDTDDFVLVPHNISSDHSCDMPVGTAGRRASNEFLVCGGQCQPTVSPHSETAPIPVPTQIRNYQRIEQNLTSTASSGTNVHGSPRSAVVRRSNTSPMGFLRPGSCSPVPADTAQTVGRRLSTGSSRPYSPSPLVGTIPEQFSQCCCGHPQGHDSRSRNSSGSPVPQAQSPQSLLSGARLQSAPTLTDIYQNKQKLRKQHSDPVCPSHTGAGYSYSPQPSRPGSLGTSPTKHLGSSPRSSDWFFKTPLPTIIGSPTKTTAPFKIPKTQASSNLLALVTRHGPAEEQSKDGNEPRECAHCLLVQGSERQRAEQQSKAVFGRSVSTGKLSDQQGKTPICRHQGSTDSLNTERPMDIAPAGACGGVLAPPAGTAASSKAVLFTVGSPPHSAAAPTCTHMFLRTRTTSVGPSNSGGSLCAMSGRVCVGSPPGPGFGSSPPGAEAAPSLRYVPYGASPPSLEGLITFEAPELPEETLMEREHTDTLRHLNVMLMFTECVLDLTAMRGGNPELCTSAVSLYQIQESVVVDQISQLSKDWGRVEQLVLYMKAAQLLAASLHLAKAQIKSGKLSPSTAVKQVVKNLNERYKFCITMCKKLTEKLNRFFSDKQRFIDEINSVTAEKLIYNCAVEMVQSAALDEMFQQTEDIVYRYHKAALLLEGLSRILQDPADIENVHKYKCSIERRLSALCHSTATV

Chain of BMP2K (human) (Q9NSY1 whole entry, looked up): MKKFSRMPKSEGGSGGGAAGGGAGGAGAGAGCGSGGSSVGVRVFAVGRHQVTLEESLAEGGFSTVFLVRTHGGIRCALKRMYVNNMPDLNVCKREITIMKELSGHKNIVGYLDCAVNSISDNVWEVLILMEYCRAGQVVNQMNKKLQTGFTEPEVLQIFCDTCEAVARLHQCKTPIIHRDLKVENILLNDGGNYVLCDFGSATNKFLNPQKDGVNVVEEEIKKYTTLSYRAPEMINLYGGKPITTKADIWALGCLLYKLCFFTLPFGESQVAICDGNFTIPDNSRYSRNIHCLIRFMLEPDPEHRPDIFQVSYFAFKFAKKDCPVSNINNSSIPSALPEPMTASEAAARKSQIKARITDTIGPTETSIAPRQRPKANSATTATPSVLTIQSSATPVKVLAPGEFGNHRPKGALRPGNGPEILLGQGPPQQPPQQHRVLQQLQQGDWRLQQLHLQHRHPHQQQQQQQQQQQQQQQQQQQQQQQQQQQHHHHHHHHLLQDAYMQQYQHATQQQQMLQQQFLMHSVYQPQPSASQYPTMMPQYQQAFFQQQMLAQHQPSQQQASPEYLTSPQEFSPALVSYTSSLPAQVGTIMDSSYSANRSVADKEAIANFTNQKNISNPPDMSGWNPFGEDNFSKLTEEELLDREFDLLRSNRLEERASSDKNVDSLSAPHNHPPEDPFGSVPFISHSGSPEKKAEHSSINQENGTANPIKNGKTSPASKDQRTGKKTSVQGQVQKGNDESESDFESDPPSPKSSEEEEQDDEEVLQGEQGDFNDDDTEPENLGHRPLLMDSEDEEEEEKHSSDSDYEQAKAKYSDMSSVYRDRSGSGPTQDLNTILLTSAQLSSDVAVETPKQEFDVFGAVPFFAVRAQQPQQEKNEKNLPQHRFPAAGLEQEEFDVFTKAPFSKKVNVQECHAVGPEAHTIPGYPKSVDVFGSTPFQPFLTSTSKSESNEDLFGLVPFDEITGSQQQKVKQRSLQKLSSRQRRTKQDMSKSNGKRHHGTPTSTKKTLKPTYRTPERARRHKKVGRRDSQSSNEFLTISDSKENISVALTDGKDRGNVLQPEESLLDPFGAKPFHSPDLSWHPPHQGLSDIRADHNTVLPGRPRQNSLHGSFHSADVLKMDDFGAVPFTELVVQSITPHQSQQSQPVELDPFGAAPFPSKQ

kinase still bound, per cent of control [1]: 100%
kinase still bound, per cent of control [2]: 84%
kinase still bound, per cent of control [3]: 85%
kinase still bound, per cent of control [4]: 10%
kinase still bound, per cent of control [5]: 73%
kinase still bound, per cent of control [6]: 70%
kinase still bound, per cent of control [7]: 67%
kinase still bound, per cent of control [8]: 37%
kinase still bound, per cent of control [9]: 54%
kinase still bound, per cent of control [10]: 64%
kinase still bound, per cent of control [11]: 68%
kinase still bound, per cent of control [12]: 100%
kinase still bound, per cent of control [13]: 12%
kinase still bound, per cent of control [14]: 76%
kinase still bound, per cent of control [15]: 79%
kinase still bound, per cent of control [16]: 100%
kinase still bound, per cent of control [17]: 92%
kinase still bound, per cent of control [18]: 98%
kinase still bound, per cent of control [19]: 94%
kinase still bound, per cent of control [20]: 68%
kinase still bound, per cent of control [21]: 78%
kinase still bound, per cent of control [22]: 32%
kinase still bound, per cent of control [23]: 28%
kinase still bound, per cent of control [24]: 100%
kinase still bound, per cent of control [25]: 92%
kinase still bound, per cent of control [26]: 91%
kinase still bound, per cent of control [27]: 5.4%
kinase still bound, per cent of control [28]: 12%
kinase still bound, per cent of control [29]: 22%
kinase still bound, per cent of control [30]: 100%
kinase still bound, per cent of control [31]: 23%
kinase still bound, per cent of control [32]: 17%
kinase still bound, per cent of control [33]: 3.2%
kinase still bound, per cent of control [34]: 100%
kinase still bound, per cent of control [35]: 91%
kinase still bound, per cent of control [36]: 100%
kinase still bound, per cent of control [37]: 60%
kinase still bound, per cent of control [38]: 91%
kinase still bound, per cent of control [39]: 48%
kinase still bound, per cent of control [40]: 6.1%
kinase still bound, per cent of control [41]: 70%
kinase still bound, per cent of control [42]: 80%
Compound: COc1cc(N2CCC(O)CC2)ccc1Nc1ncc2c(n1)N1CCc3cccc(c31)C(=O)N2C

kinase still bound, per cent of control [1]: 59%
kinase still bound, per cent of control [2]: 72%
kinase still bound, per cent of control [3]: 100%
kinase still bound, per cent of control [4]: 47%
kinase still bound, per cent of control [5]: 100%
kinase still bound, per cent of control [6]: 94%
kinase still bound, per cent of control [7]: 100%
kinase still bound, per cent of control [8]: 90%
kinase still bound, per cent of control [9]: 79%
kinase still bound, per cent of control [10]: 62%
kinase still bound, per cent of control [11]: 20%
kinase still bound, per cent of control [12]: 63%
kinase still bound, per cent of control [13]: 5.8%
kinase still bound, per cent of control [14]: 46%
kinase still bound, per cent of control [15]: 59%
kinase still bound, per cent of control [16]: 88%
kinase still bound, per cent of control [17]: 88%
kinase still bound, per cent of control [18]: 96%
kinase still bound, per cent of control [19]: 6.3%
kinase still bound, per cent of control [20]: 73%
kinase still bound, per cent of control [21]: 64%
kinase still bound, per cent of control [22]: 69%
kinase still bound, per cent of control [23]: 100%
kinase still bound, per cent of control [24]: 100%
kinase still bound, per cent of control [25]: 75%
kinase still bound, per cent of control [26]: 47%
kinase still bound, per cent of control [27]: 2.1%
kinase still bound, per cent of control [28]: 64%
kinase still bound, per cent of control [29]: 66%
kinase still bound, per cent of control [30]: 100%
kinase still bound, per cent of control [31]: 80%
kinase still bound, per cent of control [32]: 31%
kinase still bound, per cent of control [33]: 29%
kinase still bound, per cent of control [34]: 93%
kinase still bound, per cent of control [35]: 100%
kinase still bound, per cent of control [36]: 93%
kinase still bound, per cent of control [37]: 2.9%
kinase still bound, per cent of control [38]: 70%
kinase still bound, per cent of control [39]: 82%
kinase still bound, per cent of control [40]: 86%
kinase still bound, per cent of control [41]: 1%
kinase still bound, per cent of control [42]: 75%
Compound: COc1cc(N2CCN(C)CC2)ccc1Nc1ncc2c(n1)Nc1ccccc1NC2=O

kinase still bound, per cent of control [1]: 56%
kinase still bound, per cent of control [2]: 98%
kinase still bound, per cent of control [3]: 100%
kinase still bound, per cent of control [4]: 85%
kinase still bound, per cent of control [5]: 56%
kinase still bound, per cent of control [6]: 66%
kinase still bound, per cent of control [7]: 52%
kinase still bound, per cent of control [8]: 42%
kinase still bound, per cent of control [9]: 63%
kinase still bound, per cent of control [10]: 66%
kinase still bound, per cent of control [11]: 74%
kinase still bound, per cent of control [12]: 99%
kinase still bound, per cent of control [13]: 24%
kinase still bound, per cent of control [14]: 100%
kinase still bound, per cent of control [15]: 82%
kinase still bound, per cent of control [16]: 91%
kinase still bound, per cent of control [17]: 39%
kinase still bound, per cent of control [18]: 81%
kinase still bound, per cent of control [19]: 96%
kinase still bound, per cent of control [20]: 86%
kinase still bound, per cent of control [21]: 70%
kinase still bound, per cent of control [22]: 24%
kinase still bound, per cent of control [23]: 73%
kinase still bound, per cent of control [24]: 86%
kinase still bound, per cent of control [25]: 62%
kinase still bound, per cent of control [26]: 65%
kinase still bound, per cent of control [27]: 9.9%
kinase still bound, per cent of control [28]: 12%
kinase still bound, per cent of control [29]: 5.8%
kinase still bound, per cent of control [30]: 92%
kinase still bound, per cent of control [31]: 15%
kinase still bound, per cent of control [32]: 13%
kinase still bound, per cent of control [33]: 6%
kinase still bound, per cent of control [34]: 100%
kinase still bound, per cent of control [35]: 90%
kinase still bound, per cent of control [36]: 100%
kinase still bound, per cent of control [37]: 18%
kinase still bound, per cent of control [38]: 74%
kinase still bound, per cent of control [39]: 55%
kinase still bound, per cent of control [40]: 13%
kinase still bound, per cent of control [41]: 43%
kinase still bound, per cent of control [42]: 1.2%
Compound: COc1cc(N2CCN(C)CC2)ccc1Nc1ncc2c(n1)N(C)c1sccc1C(=O)N2C
